Patent US20140342065A1 (priority 2012, published 2014)

How the values were obtained:
[1] = test system: freshly cut pears and peaches; experiment: NaHS solution fumigation of freshly cut pears and peaches
Protocol: (§1) Aqueous NaHS solutions (0.25-3.5 mmol/L) could release H2S gas (10^−12˜10^−10 mol/L). H2S rapidly, reached to the highest levels within several minutes and maintained a constant concentration. […] The NaHS solution was renewed every 48 or 72 hours. The NaHS solution was placed in a sealed container separated by a partition board with pores on it. The fresh cut vegetables including Broccoli, Lettuce, Lotus Root, Yam, Pumpkin, Sweet Potato, Potato, etc, and the fresh cut fruits Apple, Pear, Kiwi Fruit, Tomato, Hami Melon, and Peach were placed above the board, while the NaHS solution was placed under the board. Therefore, the fresh cut vegetables and fruits were fumigated with H2S gas released from NaHS in the solution.
The control of freshly cut pears and peaches that were treated with water (0.0 mml/L NaHS), lost their edibility on day 2, while the shelf life of freshly cut pear and peach treated with 0.5 mmol/L-2.0 mmol/L NaHS solution was prolonged by 1-2 days. […] The control freshly cut pears and peaches treated with 0.0 mmol/L NaHS solution underwent rot process (due to physiological senescence and microbe infection) in 2.5 days, and the moldy rate reached 100% in 4 days.

[2] = Release of H2S gas from aqueous NaHS solutions; type: physicochemical; conditions: aqueous NaHS solutions 0.25-3.5 mmol/L
Protocol: as §1

[3] = test system: freshly cut chips of lettuce and lotus roots; experiment: NaHS solution fumigation of freshly cut chips of lettuce and lotus roots
Protocol: as §1
The control freshly cut chips of lettuce and lotus roots that were treated with water (0.0 mmol/L NaHS) lost their water and edibility after 15-24 hours, while the freshness of freshly cut chips of lettuce and lotus roots treated with 0.1 mmol/L-1.0 mmol/L NaHS solution was prolonged by 12-18 hours.

freshly cut tomatoes = experiment: NaHS solution fumigation of freshly cut tomatoes at breaker stage
Protocol: as §1
The control freshly cut tomatoes that were treated with water (0.0 mmol/L NaHS) gradually turned red, and reached 100% maturation on day 5, while the maturation time of freshly cut tomatoes treated with 0.5 mmol/L-3.5 mmol/L NaHS solution was prolonged by 4-5 days.

bacteria and yeast = experiment: Agar plate cultures stored with 50 mg NaHS (FIG. 10, 98); type: cell-based
Protocol: Representative samples of foods shown include fruits, vegetables, meat, chicken and salmon. […] Foods and fruits were stored in closed containers. The containers were made of aluminum with a plastic lid that snugly fitted onto the container rim. […] Control group (Control) of foods and fruits were stored within the containers. The experimental group (Exp) of foods and fruits were placed in the same type of containers and 500 mg of NaHS was placed in a glass cup which was placed in one corner of the container of the Exp group. The containers were not sealed. Using a H2S gas detector capable of detecting 1 to 500 ppm of H2S, no H2S was detected outside the containers. The amount of gas within the Exp containers varied from 5-40 ppm during the course of exposure. […] Experiments were carried out at room temperature for the durations shown. […] There is small change in color, consistency, and of the same food group and there is no evidence of growth of yeast in the NaHS treated group. Strawberry 80. […] The fruit also lost its consistency and is discolored. […] Raspberry 82. Growth of yeast is seen by day 4 and is pronounced on day 6 (arrow 83) in the control group. The fruit also lost its consistency and is discolored. […] Blackberry 84. Growth of yeast is seen by day 4 which is pronounced by day 6 (arrow 85) in the control group. The fruit also lost its consistency and is discolored. […] Banana 86. […]

freshly cut broccoli = experiment: NaHS solution fumigation of freshly cut broccoli
Protocol: as §1
The controls of fresh cut broccoli that were treated with water (0.0 mmol/L NaHS) solution lost their edibility on day 3, while the shelf life of freshly cut broccoli treated with 0.25 mmol/L-1.75 mmol/L NaHS solution was prolonged by 2-3 days. […] The control of freshly cut broccoli treated with 0.0 mmol/L NaHS solution underwent rot process (due to physiological senescence and microbe infection) at 4 days, and the moldy rate reached 100%. In contrast, the treatment with 1.5 mmol/L H2S donor, NaHS, inhibited the infection by micro-organisms, and no infection appeared until day 9.

[4] = test system: freshly cut chips of cantaloupe; experiment: NaHS solution fumigation of freshly cut chips of cantaloupe
Protocol: as §1
The control freshly cut chips of cantaloupe that were treated with water (0.0 mmol/L NaHS) lost their color and became brown, while the freshness of freshly cut chips of cantaloupe treated with 0.05 mmol/L-1.5 mmol/L NaHS solution was prolonged by 8-12 hours.

S [NaHS, sodium hydrosulfide]
shelf life prolonged by ([1]; 0.5 mmol/L-2.0 mmol/L NaHS, control lost edibility on day 2): 1 to 2 days
shelf life prolonged by ([1]; 1.5 mmol/L NaHS (best)): 2 days
day until which micro-organisms did not appear ([1]; 1.5-2.0 mmol/L NaHS): 5 days
moldy rate ([1]; 1.5-2.0 mmol/L NaHS, after 10 days, control 100% in 4 days): 80%
H2S gas released [2]: 10^−12˜10^−10 mol/L
freshness prolonged by ([3]; 0.1 mmol/L-1.0 mmol/L NaHS, control lost water and edibility after 15-24 hours): 12 to 18 h
freshness prolonged by ([3]; 0.8 mmol/L-1.0 mmol/L NaHS (best)): 18 h
maturation time prolonged by (freshly cut tomatoes; 0.5 mmol/L-3.5 mmol/L NaHS, control 100% maturation on day 5): 4 to 5 days
senescence time prolonged by (freshly cut tomatoes; 1.5 mmol/L-2.0 mmol/L NaHS (best)): 5 days
time without growth following initiation of cultures (bacteria and yeast): up to 2 months
colonies of bacteria and yeast on agar plates (bacteria and yeast; room temperature or 37° C., day 1-3): no growth was evident
shelf life prolonged by (freshly cut broccoli; 0.25 mmol/L-1.75 mmol/L NaHS, control lost edibility on day 3): 2 to 3 days
shelf life prolonged by (freshly cut broccoli; 1.5 mmol/L NaHS (most optimal)): 3 days
day until which no infection by micro-organisms appeared (freshly cut broccoli; 1.5 mmol/L NaHS, control moldy rate 100% at 4 days): 9 days
freshness prolonged by ([4]; 0.05 mmol/L-1.5 mmol/L NaHS): 8 to 12 h
freshness prolonged by ([4]; 0.9 mmol/L-1.0 mmol/L NaHS (best)): 12 h
